Results from article PMC8585833, “Serum concentrations of antidepressants, antipsychotics, and antiepileptics over the bariatric surgery procedure” (European Journal of Clinical Pharmacology, 2021).
Like-named read-outs stand apart in the source and are kept apart here.

Experiments:
[1] = source not stated, cited from earlier work
[2] = Dose-adjusted steady-state trough serum concentrations before and after low-calorie diet and bariatric surgery; format: in vivo, human
Text: We designed the study as a naturalistic longitudinal, prospective case series with intra-individual comparisons of drug concentrations over time, before and up to 1 year after the surgical procedure.
The participants contributed blood samples to the current study during routine pre-surgery visits before, and post-surgery visits about 8 weeks, 6 months, and 1 year after, the surgery. Pre-surgery sampling generally occurred twice: at an initial preoperative assessment visit, and just before surgery. Between these visits, that is, before surgery, patients were required to adhere to a low-calorie diet and show a weight reduction. The samples were stored as serum in −80 °C at a biobank, and analysed after all samples had been collected.
Before every routine visit at which the sampling was to occur, we contacted the participants by telephone to systematically obtain information on the current dose as well as adherence to the drug treatment in question over the 2 preceding weeks. Samples were excluded from the data set if non-adherence less than four elimination half-lives prior to sampling was reported; exceptions were made for occasional missed doses of fluoxetine. Half-lives applied were those described for a drug or its metabolite in the summary of product characteristics. We also asked for and recorded concomitant drug treatment, weight, and smoking status. To be able to relate potential changes in concentration to health consequences, we asked the participants during the follow-up phone calls, using an open question, if anything had happened to their health since the last visit. To obtain trough blood concentrations, we strived to schedule the routine visits before lunchtime and the participants were instructed not to take morning tablets before the sampling.
Specific substances were analysed concomitantly, using clinical routine methods, at accredited laboratories at the Department of Clinical Chemistry, Sahlgrenska University Hospital, Gothenburg, Sweden, or (as for gabapentin, hydroxybupropion, mianserine, pregabalin, paroxetine and topiramate) at the Department of Clinical Pharmacology, St. Olav’s Hospital, Trondheim, Norway. Analysis methods were based on liquid chromatography/tandem mass spectrometry or (for lamotrigine and valproic acid) enzyme immunoassay.
(§1) Statistical analyses were performed using SPSS, version 23.0 (IBM SPSS Statistics for Windows, Armonk, NY, USA). Participants treated with the same substance before and after surgery, with one or more trough sample concentrations available, were included in the analysis. To allow interindividual and intraindividual comparisons, serum concentrations were adjusted for defined daily dose (DDD). For example, since DDD for citalopram is 20 mg, a DDD-adjusted citalopram concentration of 100 nmol/L could represent a measured concentration of 50, 100, or 200 nmol/L, given a daily dose of 10, 20, or 40 mg, respectively. To compare pre- to post-surgery concentrations, as well as pre- to post-diet concentrations, we used Wilcoxon signed rank test for substances with samples available for six or more individuals. We used Spearman’s correlation to explore the relationship between the ratio of the post-/pre-diet concentrations and (i) the distribution coefficient for the drug in question, i.e., the logarithm of the ratio of its concentration in a lipophilic and a hydrophilic solution (logD), as well as (ii) the weight loss in kilograms for pregabalin.

[3] = Distribution coefficient (logD), octanol/water; format: physicochemical; conditions: two-phase system, pH 7.4; from logD
Protocol: as §1

[4] = historical data or matched non-surgery subjects as controls; cited from earlier work

SMILES	logD ([1]; octanol/water, pH 7.4)	Dose-adjusted drug concentration Median (IQR), Pre-diet/pre-surgery ([2]; human, in vivo)	Dose-adjusted drug concentration Median (IQR), post-diet ([2]; human, in vivo)	Dose-adjusted drug concentration Median (IQR), pre-diet ([2]; human, in vivo)	Dose-adjusted drug concentration Median (IQR), Post-surgery ([2]; human, in vivo, 379 days after surgery (median), trough)	Abundance in octanol relative to water [3]	Dose-adjusted drug concentration Median (IQR), Pre-diet/pre-surgery ([2]; Table 2A, antiepileptics, trough serum, adjusted for dose in DDDs)	Dose-adjusted drug concentration Median (IQR), post-diet ([2]; Table 2B, antiepileptics, trough serum, adjusted for dose in DDDs, after pre-surgery low-calorie diet)	Dose-adjusted drug concentration Median (IQR), pre-diet ([2]; Table 2B, antiepileptics, trough serum, adjusted for dose in DDDs, before low-calorie diet)	Change in dose-adjusted concentration over the pre-surgery low-calorie diet ([2]; after the pre-surgery diet, before surgery, median weight reduction 6 kg)	concentration at 379 days after surgery (median), trough ([2]; human, in vivo, Table 2A, antiepileptics, trough serum, adjusted for dose in DDDs, last observation carried forward, median 379 days after surgery, read-out: Dose-adjusted drug concentration Median (IQR), Post-surgery) [µM]	Abundance in water relative to octanol [3] [fold]	Concentration change after the bariatric surgery procedure [4]	logD ([1]; selection limit for extremely hydrophilic or extremely lipophilic substances in literature search)
CN1CCN2c3ccccc3Cc3ccccc3C2C1 (stereo not drawn) [Mianserine]	3.14	255 (N/A) nmol/L	201 (N/A) nmol/L	255 (N/A) nmol/L	183 (N/A) nmol/L	more than 1 000 fold	–	–	–	–	–	–	–	–
CC(C)C[C@H](CN)CC(=O)O [Pregabalin]	−1.35	–	–	–	–	–	8.5 (5.8–16) µmol/L	25 (8–33) µmol/L	9.5 (7–21) µmol/L	increased	13	> 20	–	–
C=CC[C@@H]1/C=C(\C)C[C@H](C)C[C@H](OC)[C@H]2O[C@@](O)(C(=O)C(=O)N3CCCC[C@H]3C(=O)O[C@H](/C(C)=C/[C@@H]3CC[C@@H](O)[C@H](OC)C3)[C@H](C)[C@@H](O)CC1=O)[C@H](C)C[C@@H]2OC [tacrolimus]	–	–	–	–	–	–	–	–	–	–	–	–	appeared to decrease	> 4
